# Data from ChEMBL document CHEMBL5465560, “Selectivity Literature for EUbOPEN Chemogenomic Library” (2024).
# Experiments:
# [1] = biological target: Tyrosine-protein kinase Yes (Homo sapiens) (UniProt P07947); assay: Selectivity interaction (KinomeScan (DiscoverX)) EUB0000229b YES1; settings: at 10 µM
# [2] = biological target: T1, Mitogen-activated protein kinase 13 (Homo sapiens) (UniProt O15264); assay: Selectivity interaction (Kinase panel (DSF assay)) EUB0001559a MAPK13
# T1 sequence (whole entry): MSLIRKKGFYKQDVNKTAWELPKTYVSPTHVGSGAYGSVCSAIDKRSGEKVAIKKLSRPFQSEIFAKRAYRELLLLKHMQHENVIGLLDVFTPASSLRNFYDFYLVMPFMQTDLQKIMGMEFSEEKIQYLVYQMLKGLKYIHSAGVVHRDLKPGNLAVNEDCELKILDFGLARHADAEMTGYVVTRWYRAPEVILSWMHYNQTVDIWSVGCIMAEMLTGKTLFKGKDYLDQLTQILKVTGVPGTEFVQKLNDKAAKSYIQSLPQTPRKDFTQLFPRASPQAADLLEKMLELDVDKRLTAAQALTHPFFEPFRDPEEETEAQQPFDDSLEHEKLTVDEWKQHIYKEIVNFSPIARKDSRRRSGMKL
# [3] = biological target: Ribosomal protein S6 kinase alpha-1 (Homo sapiens, UniProt Q15418); assay: Selectivity interaction (KinomeScan (DiscoverX)) EUB0000045b RPS6KA1
# Sequence of Ribosomal protein S6 kinase alpha-1 (Q15418 whole entry): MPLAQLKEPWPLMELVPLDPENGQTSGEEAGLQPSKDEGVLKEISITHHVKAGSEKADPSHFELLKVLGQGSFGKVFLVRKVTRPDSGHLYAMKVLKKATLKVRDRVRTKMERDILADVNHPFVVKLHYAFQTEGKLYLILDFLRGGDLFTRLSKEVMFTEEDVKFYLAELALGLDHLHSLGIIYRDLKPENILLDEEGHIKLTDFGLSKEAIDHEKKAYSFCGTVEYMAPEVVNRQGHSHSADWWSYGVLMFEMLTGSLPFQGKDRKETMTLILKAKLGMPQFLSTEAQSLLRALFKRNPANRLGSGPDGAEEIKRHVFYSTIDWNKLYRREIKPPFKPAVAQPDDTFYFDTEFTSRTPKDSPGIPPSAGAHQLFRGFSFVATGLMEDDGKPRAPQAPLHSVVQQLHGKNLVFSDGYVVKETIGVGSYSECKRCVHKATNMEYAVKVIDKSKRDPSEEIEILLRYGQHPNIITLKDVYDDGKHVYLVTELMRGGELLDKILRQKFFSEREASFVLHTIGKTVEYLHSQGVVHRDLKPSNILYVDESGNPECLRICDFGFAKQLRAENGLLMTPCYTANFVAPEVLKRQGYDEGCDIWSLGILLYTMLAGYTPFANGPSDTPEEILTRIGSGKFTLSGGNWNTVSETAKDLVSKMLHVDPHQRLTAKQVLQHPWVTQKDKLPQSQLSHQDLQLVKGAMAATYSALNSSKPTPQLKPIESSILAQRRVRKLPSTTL
# [4] = biological target: Serine/threonine-protein kinase 32B (Homo sapiens) (UniProt Q9NY57); assay: Selectivity interaction (LanthaScreen Eu Kinase Binding Assay) EUB0001632a STK32B; settings: at 10 µM
# Sequence of Serine/threonine-protein kinase 32B (Homo sapiens) (Q9NY57 whole entry): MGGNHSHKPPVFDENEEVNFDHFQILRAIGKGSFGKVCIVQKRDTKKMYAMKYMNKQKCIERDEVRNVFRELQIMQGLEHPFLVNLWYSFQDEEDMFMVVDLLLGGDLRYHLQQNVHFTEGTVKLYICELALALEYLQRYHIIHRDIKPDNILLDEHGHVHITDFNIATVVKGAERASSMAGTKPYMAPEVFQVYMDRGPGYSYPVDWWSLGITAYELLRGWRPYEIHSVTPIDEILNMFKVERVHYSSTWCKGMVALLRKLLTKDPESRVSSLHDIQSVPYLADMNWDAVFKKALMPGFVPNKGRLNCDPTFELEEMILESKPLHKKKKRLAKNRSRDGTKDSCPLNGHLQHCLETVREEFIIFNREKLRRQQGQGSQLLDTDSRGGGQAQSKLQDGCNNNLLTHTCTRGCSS
# [5] = biological target: Epidermal growth factor receptor (Homo sapiens, UniProt P00533); assay: Selectivity interaction (Kinase screening (Nanosyn)) EUB0000604a EGFR
# Sequence of Epidermal growth factor receptor (P00533 whole entry): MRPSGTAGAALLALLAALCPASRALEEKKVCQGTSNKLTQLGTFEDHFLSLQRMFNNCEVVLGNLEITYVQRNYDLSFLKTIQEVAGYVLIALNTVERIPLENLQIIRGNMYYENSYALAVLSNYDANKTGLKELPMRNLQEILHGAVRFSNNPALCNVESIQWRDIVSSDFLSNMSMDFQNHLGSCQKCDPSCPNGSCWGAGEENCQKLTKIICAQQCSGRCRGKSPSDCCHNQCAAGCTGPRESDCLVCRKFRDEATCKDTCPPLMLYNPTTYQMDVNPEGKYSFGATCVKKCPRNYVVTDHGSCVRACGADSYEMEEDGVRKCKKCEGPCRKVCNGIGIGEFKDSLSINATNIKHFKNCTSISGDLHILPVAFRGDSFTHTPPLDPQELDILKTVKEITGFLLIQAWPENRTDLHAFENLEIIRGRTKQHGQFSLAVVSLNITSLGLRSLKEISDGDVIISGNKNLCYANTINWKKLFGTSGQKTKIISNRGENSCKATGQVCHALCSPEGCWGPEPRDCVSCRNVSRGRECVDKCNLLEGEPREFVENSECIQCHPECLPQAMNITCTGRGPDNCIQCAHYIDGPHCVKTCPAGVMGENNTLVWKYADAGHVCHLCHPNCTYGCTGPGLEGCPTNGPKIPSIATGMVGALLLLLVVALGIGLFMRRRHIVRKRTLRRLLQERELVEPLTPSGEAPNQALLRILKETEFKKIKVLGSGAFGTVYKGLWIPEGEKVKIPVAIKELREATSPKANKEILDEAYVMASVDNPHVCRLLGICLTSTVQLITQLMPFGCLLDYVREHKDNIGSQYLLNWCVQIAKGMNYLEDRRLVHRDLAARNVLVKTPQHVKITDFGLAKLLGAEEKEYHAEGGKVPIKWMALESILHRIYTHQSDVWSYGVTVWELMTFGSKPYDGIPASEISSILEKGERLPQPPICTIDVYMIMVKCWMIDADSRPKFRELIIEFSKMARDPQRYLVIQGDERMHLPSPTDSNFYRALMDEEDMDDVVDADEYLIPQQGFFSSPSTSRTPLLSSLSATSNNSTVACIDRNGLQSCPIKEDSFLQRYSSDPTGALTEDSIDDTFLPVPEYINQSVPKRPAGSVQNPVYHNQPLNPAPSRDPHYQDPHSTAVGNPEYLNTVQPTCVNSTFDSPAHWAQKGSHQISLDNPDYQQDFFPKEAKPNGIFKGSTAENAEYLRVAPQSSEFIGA
# [6] = biological target: Tyrosine-protein kinase Fyn (Homo sapiens) (UniProt P06241); assay: Selectivity interaction (KinomeScan (DiscoverX)) EUB0001049a FYN; settings: at 1 µM
# Sequence of Tyrosine-protein kinase Fyn (Homo sapiens) (P06241 2-537 limits assumed): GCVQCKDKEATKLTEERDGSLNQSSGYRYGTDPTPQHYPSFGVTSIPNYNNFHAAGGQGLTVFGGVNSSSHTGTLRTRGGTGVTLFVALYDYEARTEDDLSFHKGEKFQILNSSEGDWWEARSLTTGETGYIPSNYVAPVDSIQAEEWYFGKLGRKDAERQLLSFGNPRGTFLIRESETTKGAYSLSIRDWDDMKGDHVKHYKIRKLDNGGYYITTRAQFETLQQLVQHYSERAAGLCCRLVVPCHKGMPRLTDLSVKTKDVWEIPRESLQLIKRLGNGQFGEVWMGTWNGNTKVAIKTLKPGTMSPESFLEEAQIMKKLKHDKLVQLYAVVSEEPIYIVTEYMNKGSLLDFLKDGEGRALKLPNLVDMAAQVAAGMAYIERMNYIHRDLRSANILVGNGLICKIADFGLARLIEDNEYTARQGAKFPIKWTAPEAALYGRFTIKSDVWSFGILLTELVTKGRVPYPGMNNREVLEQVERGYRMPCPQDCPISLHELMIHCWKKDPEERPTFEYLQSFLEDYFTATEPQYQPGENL
# [7] = biological target: Cyclin-dependent kinase 2/cyclin A (Homo sapiens) (UniProt P24941+P20248+P78396); assay: (§1) Selectivity interaction (Millipore kinase profiler) EUB0000124b CDK2; type: protein-complex assay; settings: at 10 µM
# [8] = biological target: Cyclin-dependent kinase 2/cyclin E (Homo sapiens) (UniProt P24864+P24941+O96020); assay: as §1; type: protein-complex assay; settings: at 10 µM
# [9] = biological target: Mitogen-activated protein kinase 7 (Homo sapiens) (UniProt Q13164); assay: Selectivity interaction (ProQinase) EUB0000171b MAPK7
# Sequence of Mitogen-activated protein kinase 7 (Homo sapiens) (Q13164 2-816 limits assumed): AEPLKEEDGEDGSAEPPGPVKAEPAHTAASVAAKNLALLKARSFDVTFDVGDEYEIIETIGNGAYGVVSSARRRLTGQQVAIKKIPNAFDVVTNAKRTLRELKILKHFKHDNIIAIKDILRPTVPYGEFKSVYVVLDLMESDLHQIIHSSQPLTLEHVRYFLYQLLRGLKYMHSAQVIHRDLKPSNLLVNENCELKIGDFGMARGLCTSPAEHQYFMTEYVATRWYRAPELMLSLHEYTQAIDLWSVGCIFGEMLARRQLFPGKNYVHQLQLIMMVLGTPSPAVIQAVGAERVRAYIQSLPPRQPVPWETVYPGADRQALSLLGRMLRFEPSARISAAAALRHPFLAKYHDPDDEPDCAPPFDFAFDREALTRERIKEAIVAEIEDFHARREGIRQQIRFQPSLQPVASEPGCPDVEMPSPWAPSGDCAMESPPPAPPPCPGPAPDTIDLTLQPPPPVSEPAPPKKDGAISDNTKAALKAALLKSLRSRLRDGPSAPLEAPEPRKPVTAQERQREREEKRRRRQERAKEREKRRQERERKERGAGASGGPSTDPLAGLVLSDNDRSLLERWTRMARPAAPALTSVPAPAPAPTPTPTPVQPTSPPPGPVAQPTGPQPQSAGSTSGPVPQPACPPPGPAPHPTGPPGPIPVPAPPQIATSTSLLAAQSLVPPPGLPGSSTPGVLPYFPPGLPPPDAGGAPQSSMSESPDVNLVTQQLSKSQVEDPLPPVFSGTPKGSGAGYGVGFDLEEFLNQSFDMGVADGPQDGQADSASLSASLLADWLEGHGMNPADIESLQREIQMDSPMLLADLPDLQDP
# [10] = biological target: T2, Mitogen-activated protein kinase kinase kinase 2 (Homo sapiens) (UniProt Q9Y2U5); assay: Selectivity interaction (ActivX KiNativ screen (ex vivo kinase selectivity in human PBMCs)) EUB0001619a MAP3K2; type: cell-based; settings: PBMC, at 1 µM
# T2 sequence (whole entry): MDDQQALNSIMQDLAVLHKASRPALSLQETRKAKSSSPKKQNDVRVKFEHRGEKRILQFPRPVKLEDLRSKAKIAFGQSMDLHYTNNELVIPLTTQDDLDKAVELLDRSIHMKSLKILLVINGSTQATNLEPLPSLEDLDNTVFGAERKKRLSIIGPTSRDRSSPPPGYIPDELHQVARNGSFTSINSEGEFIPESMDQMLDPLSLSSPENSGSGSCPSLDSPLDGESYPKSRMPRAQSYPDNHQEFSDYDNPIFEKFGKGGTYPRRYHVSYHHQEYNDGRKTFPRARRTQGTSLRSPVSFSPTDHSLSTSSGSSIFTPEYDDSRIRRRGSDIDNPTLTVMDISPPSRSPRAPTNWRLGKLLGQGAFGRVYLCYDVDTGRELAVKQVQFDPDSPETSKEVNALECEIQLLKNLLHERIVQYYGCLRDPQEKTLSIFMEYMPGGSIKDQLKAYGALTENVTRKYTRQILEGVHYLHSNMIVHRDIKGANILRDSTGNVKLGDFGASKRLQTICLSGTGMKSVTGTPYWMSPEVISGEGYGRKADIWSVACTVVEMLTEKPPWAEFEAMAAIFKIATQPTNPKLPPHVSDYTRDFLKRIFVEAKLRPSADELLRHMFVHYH
# [11] = biological target: Serine/threonine-protein kinase 24 (Homo sapiens) (UniProt Q9Y6E0); assay: Selectivity interaction (ActivX KiNativ screen (ex vivo kinase selectivity in human PBMCs)) EUB0001619a STK24; type: cell-based; settings: PBMC, at 1 µM
# Sequence of Serine/threonine-protein kinase 24 (Homo sapiens) (Q9Y6E0 whole entry, looked up): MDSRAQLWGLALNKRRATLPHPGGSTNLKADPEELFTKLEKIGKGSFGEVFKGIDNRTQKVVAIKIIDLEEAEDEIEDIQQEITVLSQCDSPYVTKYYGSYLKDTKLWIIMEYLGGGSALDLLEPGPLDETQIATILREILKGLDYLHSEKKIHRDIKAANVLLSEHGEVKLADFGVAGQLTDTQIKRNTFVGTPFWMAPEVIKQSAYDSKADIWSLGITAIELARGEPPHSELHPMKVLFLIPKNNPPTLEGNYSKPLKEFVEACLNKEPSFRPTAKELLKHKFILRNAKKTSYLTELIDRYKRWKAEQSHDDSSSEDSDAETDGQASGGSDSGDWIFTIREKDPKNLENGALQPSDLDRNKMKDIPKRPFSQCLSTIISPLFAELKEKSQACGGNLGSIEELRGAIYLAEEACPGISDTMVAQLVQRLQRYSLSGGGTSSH
# [12] = biological target: T3, Myotonin-protein kinase (Homo sapiens) (UniProt Q09013); assay: Selectivity interaction (KinomeScan (DiscoverX)) EUB0000655a DMPK; settings: at 10 µM
# T3 sequence (whole entry): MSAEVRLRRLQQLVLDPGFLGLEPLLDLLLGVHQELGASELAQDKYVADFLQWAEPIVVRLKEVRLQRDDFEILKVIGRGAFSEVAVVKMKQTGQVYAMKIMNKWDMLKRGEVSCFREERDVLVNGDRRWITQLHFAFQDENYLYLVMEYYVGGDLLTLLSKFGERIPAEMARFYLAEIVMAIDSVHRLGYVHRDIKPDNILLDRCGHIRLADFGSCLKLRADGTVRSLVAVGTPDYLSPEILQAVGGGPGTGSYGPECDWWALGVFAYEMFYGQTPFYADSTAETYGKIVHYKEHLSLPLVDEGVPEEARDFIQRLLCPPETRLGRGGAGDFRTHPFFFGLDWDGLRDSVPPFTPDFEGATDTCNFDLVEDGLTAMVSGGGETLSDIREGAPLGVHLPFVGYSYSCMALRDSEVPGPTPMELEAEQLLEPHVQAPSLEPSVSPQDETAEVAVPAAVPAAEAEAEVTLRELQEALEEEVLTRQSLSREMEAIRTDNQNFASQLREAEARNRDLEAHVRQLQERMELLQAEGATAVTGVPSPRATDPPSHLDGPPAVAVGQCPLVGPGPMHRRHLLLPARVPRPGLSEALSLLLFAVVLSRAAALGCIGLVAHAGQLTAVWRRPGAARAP
# [13] = biological target: Calcium/calmodulin-dependent protein kinase type II subunit beta (Homo sapiens) (UniProt Q13554); assay: Selectivity interaction (Ambit KINOMEscan and KiNATiv profiling in Jurkat cells) EUB0000090b CAMK2B; type: cell-based; settings: at 1 µM
# Sequence of Calcium/calmodulin-dependent protein kinase type II subunit beta (Homo sapiens) (Q13554 whole entry): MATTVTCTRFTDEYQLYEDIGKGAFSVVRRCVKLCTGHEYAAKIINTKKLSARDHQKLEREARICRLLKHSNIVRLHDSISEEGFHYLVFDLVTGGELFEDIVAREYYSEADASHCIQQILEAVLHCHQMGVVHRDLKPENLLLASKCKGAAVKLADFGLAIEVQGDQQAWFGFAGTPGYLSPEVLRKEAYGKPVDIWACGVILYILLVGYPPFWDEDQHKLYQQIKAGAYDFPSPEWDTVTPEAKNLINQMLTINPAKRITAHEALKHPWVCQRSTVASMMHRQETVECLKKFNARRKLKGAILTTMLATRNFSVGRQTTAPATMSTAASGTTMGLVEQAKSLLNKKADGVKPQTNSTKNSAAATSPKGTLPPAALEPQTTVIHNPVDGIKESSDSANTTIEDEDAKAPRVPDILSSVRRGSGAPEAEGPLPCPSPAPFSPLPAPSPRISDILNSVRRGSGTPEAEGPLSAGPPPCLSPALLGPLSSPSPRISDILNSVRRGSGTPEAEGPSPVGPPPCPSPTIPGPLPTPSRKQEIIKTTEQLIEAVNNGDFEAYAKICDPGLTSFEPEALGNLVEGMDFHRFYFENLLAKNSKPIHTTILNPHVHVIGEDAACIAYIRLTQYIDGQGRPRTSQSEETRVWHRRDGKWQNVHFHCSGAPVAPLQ
smiles,measurement,setting,value
COc1cc(N(C)c2ccnc3ccc(C(F)(F)F)cc23)cc(OC)c1OC,% binding,[1],83%
CN(C(=O)c1cnn2cccnc12)c1cc2c(cc1N1CCOCC1)C(=O)N(C[C@@H](F)C(C)(C)O)C2,dTM,[2],1.1 K
C=CC(=O)Nc1cc(-n2c(=O)ccc3cnc4ccc(-c5ccc(NS(C)(=O)=O)cc5)cc4c32)ccc1C,% of control,[3]; at 1 µM,76%
same,% of control,[3]; at 10 µM,67%
Cn1cc(-n2cnc3c(NCc4nc5cc(Cl)c(Cl)cc5[nH]4)nc(N4CCOCC4)nc32)cn1,% of inhibition,[4],-8.62%
Cc1cnc(Nc2ccc(F)cc2Cl)nc1-c1c[nH]c(C(=O)N[C@H](CO)c2cccc(Cl)c2)c1,% of inhibition,[5],6%
COc1cc(Nc2nc(C)cc(-c3cnn4nc(OC)ccc34)n2)cc(C(F)(F)F)c1,% of control,[6],100%
CC(=O)Nc1cccc(-n2c(=O)n(C3CC3)c(=O)c3c(Nc4ccc(I)cc4F)n(C)c(=O)c(C)c32)c1,% of control,[7],101%
same,% of control,[8],104%
C=CC(=O)Nc1cccc(C(=O)Nc2ccc(Nc3cc(-c4[nH]c(SC)nc4C)ccn3)cc2)c1,% of control,[9]; at 1 µM,83%
same,% of control,[9]; at 5 µM,73%
N#Cc1cccc(-c2c[nH]c3ncnc(N4CCOCC4)c23)c1,% of inhibition,[10],13%
same,% of inhibition,[11],39%
CN(C)CCOc1ccc(-c2nc(-c3ccncc3)c(-c3ccc4c(c3)CC/C4=N\O)[nH]2)cc1,% of control,[12],100%
CN(C)C/C=C/C(=O)Nc1ccc(C(=O)N2CCCC(Nc3ncc(Cl)c(-c4c[nH]c5ccccc45)n3)C2)cc1 (stereo not given),% of control,[13],94%
